This note sets out measurements from patent US20230173090A1, “COMPOSITIONS AND METHODS FOR MODULATING DOPAMINE RECEPTOR ACTIVITY” (The Regents of the University of California, priority 2020, published 2023).

Assay [1] deals with D1R and D5R. Description: Open field test, bilateral dStr-infusion of SKF82958 in D1-Cre mice. In kind it is in vivo. How it is done: FIGS. 21A-21K. […] (A) An infusion of SKF82958 directly to the dorsal striatum (dStr) activates D1R and D5R in various cell types of this brain area and could diffuse into other brain areas. (B) Time course of the effect of a bilateral dStr-infusion of SKF82958 (400 nL per hemisphere) on the locomotion of D1-Cre mice in an open field. (C) Average velocity in the last 10 minutes of the open field test. one-way ANOVA, F = 14.3, Bonferroni, ^∗∗p < 0.01, ^∗∗∗p < 0.001. n = 5 mice per condition. (D) Time to maximum locomotion with SKF82958 or MP-D1ago. unpaired two-sided t-test, ^∗∗∗∗p < 0.0001. n = 5 for SKF82958, n = 7 mice for MP-D1ago. (E) Example movement dynamics of a mouse treated with vehicle or 100 µg SKF82958. Shown for SKF82958-treated mice is the (F) average percent of the time in motion, (G) average initiations per second, (H) average movement bout duration, and (I) the average maximum movement bout velocity. […] Bonferroni, ^∗p < 0.05, ^∗∗p < 0.01. n = 5 mice. (J) Representative coronal brain slice from a mouse infused with SKF82958. grey bar = 1 mm. blue = DAPI staining. (K) Summary of cannula locations for individual mice.

Assay [2] has as its target T1, D1R (Homo sapiens, UniProt P21728).
T1 construct: expressed in transfected cells; host or cells: HEK293T (A1, A2); HEK293 (A26)
In words: D1R-mediated GIRK channel activation assay in HEK293T cells (whole-cell electrophysiology). The class given is cell-based. The settings on record: % of photocurrent in the absence of LE300. Here is the method: All constructs were cloned into mammalian expression vectors. For the receptor mediated-GIRK activation assay, HEK293T cells were seeded onto 18 mm coverslips and transiently transfected overnight with Lipofectamine 2000 and the following constructs: a receptor, a variant of the membrane-anchor (M; 0.7 µg), GIRK1(F137S) (0.7 µg), and tdTomato (0.2 µg). […] D1R, D5R, or opto-D1R were cotransfected with Gαis13 (0.35 µg), D3R with GαoA (0.7 µg), and M1R or mGluR1 with Gαiq5. Transfected cells were used for electrophysiology, imaging, or flow cytometry experiments.
HEK293T cells were sparsely seeded and maintained in DMEM (Invitrogen) with 10% fetal bovine serum on poly-L-lysine-coated coverslips at 37° C. and 5% CO2. HEK293T cells were voltage clamped in whole-cell configuration 16-48 hours after transfection. […] GluK2 electrophysiology was performed in the presence of 0.3 mg/mL concanavalin A to prevent desensitization. […] Cells were voltage clamped to -60 or -80 mV using an Axopatch 200A (Molecular Devices) amplifier.
For all experiments, compounds were applied using a gravity-driven perfusion system and illumination was applied to the entire field of view using a Polychrome V monochromator (TILL Photonics) through a 20x objective (maximum 0.05 mW/mm^2 at 370 nm and 0.5 mW/mm^2 at 460 nm or 473 nm) or a DG4 (Sutter) through a 20x objective (maximum 0.06 mW/mm^2 at 370 nm and 0.6 mW/mm^2 at 445 nm). pClamp software was used for both data acquisition and control of illumination.
The selection criteria for electrophysiological experiments are that a cell (i) expresses the fluorescent protein transfection marker, and (ii) responds to agonist, indicating the presence of either receptor and GIRK or an LGIC. Cells were not excluded unless the recording was of poor quality (e.g., unstable baseline).
Data were analyzed using GraphPad Prism (GraphPad), Clampfit (Axon instruments), Origin (OriginLab), MATLAB, or ImageJ software. For dose-response curves, data were normalized to vehicle (0%) and DA (100%) and nonlinear regression analysis was performed using the sigmoidal dose-response function in GraphPad Prism. Statistical analyses were performed using GraphPad Prism. All values reported are mean ± S.E.M.
FIGS. 9A-9H. Functional properties of untethered P-D1ago. (A) Schematic representation of a D1R-mediated G protein-coupled inwardly rectifying potassium (GIRK) channel assay in HEK293T cells. Agonist-induced receptor activation results in the recruitment of a heterotrimeric G protein containing the chimeric Gα subunit (Gαis) followed by the release of Gβγ, which activates GIRK channels and enhances inward-current. […] (E) Schematic representation of a highly sensitive D1R-mediated cAMP accumulation assay in HEK293T cells. Agonist-induced D1R activation results in Gs/olfrecruitment followed by the binding of its Gα subunit to adenylate cyclase (AC), which enhances the conversion of ATP to cAMP. cAMP binds the bioluminescence resonance energy transfer 1 (BRET′)-based cAMP sensor CAMYEL^87, resulting in a conformational change in its Epac domain that increases the distance and decreases BRET^1 between the donor Renilla luciferase (Rluc) and the acceptor YFP. […] Optimization and characterization of the D1R MP

The structures appear in SMILES notation.

T1 sequence (P21728 whole entry): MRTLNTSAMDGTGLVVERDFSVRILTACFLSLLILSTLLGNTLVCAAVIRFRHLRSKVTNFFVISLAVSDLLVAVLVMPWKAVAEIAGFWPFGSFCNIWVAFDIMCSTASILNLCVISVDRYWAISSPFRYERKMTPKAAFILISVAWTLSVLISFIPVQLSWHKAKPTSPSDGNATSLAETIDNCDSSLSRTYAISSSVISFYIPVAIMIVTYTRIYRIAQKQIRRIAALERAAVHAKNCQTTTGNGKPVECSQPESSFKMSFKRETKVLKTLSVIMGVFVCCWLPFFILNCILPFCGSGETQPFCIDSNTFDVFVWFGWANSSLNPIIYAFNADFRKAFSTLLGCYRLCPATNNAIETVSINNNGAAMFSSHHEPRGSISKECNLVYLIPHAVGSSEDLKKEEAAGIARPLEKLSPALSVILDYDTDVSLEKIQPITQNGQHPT

As for `C=CCN1CCc2c(cc(O)c(O)c2Cl)C(c2ccccc2)C1` (centres unmarked) [SKF82958], in assay [1], the “duration of the movement bouts” value is “increased”, the movement initiation entry is on record as “increased” and the “percentage of the time in motion” value is on record as “increased the percentage of the time that the mice were in motion”. For the same compound, the “locomotion in an open field” value in assay [1] (400 nL per hemisphere) was “enhanced locomotion”.

`CN1CCc2ccccc2Cc2[nH]c3ccccc3c2CC1` [LE300, reference compound]: the “photoactivation of D1R by P-D1ago tethered to the M in the presence of LE300” value in assay [2] is reported as 3.3 ± 3.3%.
